The values below come from patent publication US6946442B2, “Method of hastening cervical ripening” (priority 1994, dated 2005).

For test [1], the system named is VEGF165 mRNA. As to the kind of experiment: Northern blot hybridisation, VEGF165 mRNA in non-pregnant cervical tissue explants. It counts as cell-based, human. The following applies: 48 hours. On the procedure: Human uterine non-pregnant cervix tissue was obtained from non-malignant hysterectomies. The samples were maintained in phenol red free culture media DMEM supplemented with penicillin (1%), streptomycin (1%) and L-Glutamine (1%) and transferred to the laboratory on ice. The biopsies were washed in ice-cold saline solution then cut into small sections 1 to 2 mm and incubated in the above culture medium in 60×15 mm petri dishes at 37° C. in 5% CO2/95% air. Progesterone (P2) was added to the culture medium at concentrations of 10^−4, 10^−6 and 10^−8 M. 17−β Estradiol (E2) was added to the culture medium either alone at concentrations of 10^−6, 10^−7 and 10^−8 M or for 2 hours to prime the cervical explants at a concentration of 10^−7 M, followed by addition of Progesterone (P2) at concentrations ranging from 10^31 4 to 10^−8 M. The effect of VEGF165 (1, 10, 50, 100, 200 ng/ml) and PAF (10^−6−10^−10 M) in the non-pregnant cervical explants was also investigated. This culture system was chosen because it allows study of the intact tissues in their own matrix and avoids the potentially artefact-producing procedures of cell dispersion and culture. In this system, the cells remain intact for at least 5 days. RNA (40 μg/lane) was loaded onto a 1.2% agarose/formaldehyde gel, electrophoretically separated, transferred onto Hybond nylon membranes, and immobilised by exposure to U.V. light for 5 min. Membranes were prehybridized at 42° C. for 8 hours in a solution containing 50% formamide, 5×SSC, 5×Denhardt's solution, 0.5% SDS and salmon sperm DNA at 150 μg/ml. The VEGF165 cDNA was labelled with [α-^32P]dCTP by random-primer extension. 18s oligonucleotide probe labelled by T4 polynucleotide kinase with […] was used to determine the relative amount of RNA loaded in each lane by rehybridizing the blots that have previously been probed with VEGF165. Hybridisation was done under the same conditions with the labelled probe for 18 hours at 42° C. […]

Test [2] concerns VEGF protein expression. In words: Western blot analysis, VEGF protein expression in non-pregnant cervical explants and culture medium. It counts as cell-based, human. On the procedure: Human uterine non-pregnant cervix tissue was obtained from non-malignant hysterectomies. The samples were maintained in phenol red free culture media DMEM supplemented with penicillin (1%), streptomycin (1%) and L-Glutamine (1%) and transferred to the laboratory on ice. The biopsies were washed in ice-cold saline solution then cut into small sections 1 to 2 mm and incubated in the above culture medium in 60×15 mm petri dishes at 37° C. in 5% CO2/95% air. Progesterone (P2) was added to the culture medium at concentrations of 10^−4, 10^−6 and 10^−8 M. 17−β Estradiol (E2) was added to the culture medium either alone at concentrations of 10^−6, […] M, followed by addition of Progesterone (P2) at concentrations ranging from 10^31 4 to 10^−8 M. The effect of VEGF165 (1, 10, 50, 100, 200 ng/ml) and PAF (10^−6−10^−10 M) in the non-pregnant cervical explants was also investigated. This culture system was chosen because it allows study of the intact tissues in their own matrix and avoids the potentially artefact-producing procedures of cell dispersion and culture.
Cervical tissue, after having been stimulated with VEGF165 or PAF for 24 hours or with the ovarian steroid hormones, 17β-estradiol (E2) and progesterone (P2), for 48 hours, was washed twice in ice-cold PBS and homogenised in ice-cold, high salt lysis buffer (containing 0.4 M KCl, 20 mM HEPES, 1 mM DTT, 20% glycerol, 0.5 mg/ml Bacitracin, 40 μg/ml PMSF, 5 μg/ml Peptastin, 5 μg/ml Leupeptin). Homogenates were centrifuged at 12,000 revolutions/min for 15 minutes and the supernatants containing extracted protein were collected. The culture medium used to incubate the tissue with or without E2, P2 or E2+P2 was also collected, centrifuged. To the supernatant, 3 volumes of ethanol were added and stored at −70° C. for at least 5 hours. Then, the culture medium/ethanol suspension was centrifuged at 10,000 rpm for 10 min and the pellet containing the protein was resuspended in lysis buffer. Total protein, extracted from both tissue and medium, was quantified with the Bio-Rad protein assay, and 500 ng of protein from each sample was diluted in loading buffer (containing 0.02 M Tris-HCl, 0.002 M EDTA, 2% SDS, 10% mercaptoethanol, 20% glycerol, bromophenol blue). Samples were subjected to electrophoresis in a 12% polyacrylamide gel with 5% stacking gel and transferred overnight at 36V onto a nitrocellulose membrane. The membrane was blocked at RT with 1% skimmed milk in Tris-buffered saline solution before incubation with an antiserum (diluted 1:500) directed against the rabbit VEGF165 at 4° C. After a 15 min. wash and 2×5 min. washes with Tris-buffered saline solution at room temperature (RT), the membrane was incubated in an anti-rabbit secondary Ab conjugated to alkaline phosphatase. In case of Western blotting experiments for Connexin-43, the membrane was blocked overnight at 4° C. in blocking buffer (1% BSA in 10 mM Tris pH 7.5, 100 mM NaCl, 0.1% Tween 20), before incubation with a monoclonal antibody directed against Connexin-43 again overnight at 4° C. After a 6×5 min. washes with Tris-buffered saline solution, the membrane was incubated in a mouse secondary Ab conjugated to alkaline phosphatase. A chemiluminescence system (ECL-Amersham) was used to visualise the presence of VEGF165, Connexin-43 or Flt-1 protein. This is a highly sensitive and quantitative assay for detecting proteins immobilised on membranes.
Cervical tissue explants in culture medium were exposed to various concentrations of the ovarian steroid hormones, 17β-estradiol (E2) and progesterone (P2), for 48 hours, followed by extraction of protein from the tissue as well as the culture medium.
Background: Immunoblotting shows a protein as a band on a membrane.

The subject of test [3] is Connexin-43. As to the kind of experiment: Western blot, Connexin-43 expression in non-pregnant cervical explants. In kind it is cell-based, human. As for the experimental part: Human uterine non-pregnant cervix tissue was obtained from non-malignant hysterectomies. The samples were maintained in phenol red free culture media DMEM supplemented with penicillin (1%), streptomycin (1%) and L-Glutamine (1%) and transferred to the laboratory on ice. The biopsies were washed in ice-cold saline solution then cut into small sections 1 to 2 mm and incubated in the above culture medium in 60×15 mm petri dishes at 37° C. in 5% CO2/95% air. Progesterone (P2) was added to the culture medium at concentrations of 10^−4, 10^−6 and 10^−8 M. 17−β Estradiol (E2) was added to the culture medium either alone at concentrations of 10^−6, 10^−7 and 10^−8 M or for 2 hours to prime the cervical explants at a concentration of 10^−7 M, followed by addition of Progesterone (P2) at concentrations ranging from 10^31 4 to 10^−8 M. The effect of VEGF165 (1, 10, 50, 100, 200 ng/ml) and PAF (10^−6−10^−10 M) in the non-pregnant cervical explants was also investigated. This culture system was chosen because it allows study of the intact tissues in their own matrix and avoids the potentially artefact-producing procedures of cell dispersion and culture. In this system, the cells remain intact for at least 5 days.

Test [4] has as its system rat cervix. In words: Tensile properties (stress-strain, extensibility) of isolated cervix after intravaginal treatment of pregnant rats. It counts as in vivo, Sprague-Dawley rats. Conditions: for cervical extensibility: 100 ng/ml gel intravaginally. On the procedure:
Control animals received applications of gel only.
The tensile properties of the isolated cervix were evaluated using the Shimadzu EZ-Test instrumentation using a test regimen which mimicked the conditions during labour. Briefly, the cervix was suspended between two hooks by means of threads passed through the cervical canal. It was then placed in a 40 ml tissue bath containing 10 mM HEPES/PBS solution (pH=7.4) maintained at 25° C. […] Each cervix was allowed 30 min. to equilibrate. The lower hook was fixed while the upper hook was movable, to simultaneously record displacement and force with a sample rate of 20 Hz. […] The upper hook was moved until a small resistance of the tissue (20 mN) was recorded after which the tester automatically moved the upper hook to incrementally stretch the cervix in steps of 0.4 mm. at 1 min. intervals. Between subsequent stretches the hook rested for 1 min. allowing the cervix to accommodate. During the accommodation periods the cervix reverted back to a relaxed state, therefore diminishing the opposed resistance and thus the tension recorded by the tester. FIG. 15 illustrates a typical stress-strain plot of a rat cervix. […] At YP permanent morphological changes and breaks in the material begin to occur. Break-point (BP) is the moment where the tissue completely breaks and the load abruptly falls toward zero. To quantify the elastic behaviour of the cervix (cervical resistance), straight lines are fitted through the linear portion of the force versus displacement curve. The slopes of the upper, lower and mid-point regression lines that are related to Young's modulus for elastic materials were used to best characterise the tensile properties of the sample. A larger slope indicates a higher resistance to dilation, therefore lower extensibility.

Test [5] deals with Connexin-43. The following applies: non-pregnant myometrial explants, FIG. 11A. As for the experimental part: Cervical tissue, after having been stimulated with VEGF165 or PAF for 24 hours or with the ovarian steroid hormones, 17β-estradiol (E2) and progesterone (P2), for 48 hours, was washed twice in ice-cold PBS and homogenised in ice-cold, high salt lysis buffer (containing 0.4 M KCl, 20 mM HEPES, 1 mM DTT, 20% glycerol, 0.5 mg/ml Bacitracin, 40 μg/ml PMSF, 5 μg/ml Peptastin, 5 μg/ml Leupeptin). Homogenates were centrifuged at 12,000 revolutions/min for 15 minutes and the supernatants containing extracted protein were collected. The culture medium used to incubate the tissue with or without E2, P2 or E2+P2 was also collected, centrifuged. To the supernatant, 3 volumes of ethanol were added and stored at −70° C. for at least 5 hours. Then, the culture medium/ethanol suspension was centrifuged at 10,000 rpm for 10 min and the pellet containing the protein was resuspended in lysis buffer. Total protein, extracted from both tissue and medium, was quantified with the Bio-Rad protein assay, and 500 ng of protein from each sample was diluted in loading buffer (containing 0.02 M Tris-HCl, 0.002 M EDTA, 2% SDS, 10% mercaptoethanol, 20% glycerol, bromophenol blue). […] This is a highly sensitive and quantitative assay for detecting proteins immobilised on membranes.

Test [6] has as its system pregnant rats. As to the kind of experiment: Preterm delivery induced by progesterone receptor antagonist in pregnant rats. The following applies: 10 mg s.c. on day 19, in 24 h. It counts as in vivo, Sprague-Dawley rats. On the procedure: Treatments (Protocols A and B): Mouse recombinant VEGF164 (the murine equivalent of human VEGF165) was dissolved at a concentration of 10 and 100 ng/ml gel. Control animals received applications of gel only. Some animals were injected on day 19 s.c. with 10 mg progesterone receptor antagonist RU486, a protocol which induces in 24 h preterm delivery in 80% of animals.

On to `C[C@]12CC[C@@H]3c4ccc(O)cc4CC[C@H]3[C@@H]1CC[C@@H]2O` [17β-estradiol], for which the “VEGF mRNA compared to Control” value in test [1] (17β-estradiol alone, non-pregnant cervical explants) was “up-regulates”. The “secreted forms of VEGF in the culture medium” value in test [2] (17β-estradiol, 48 hours, culture medium) is reported as “up-regulates”. Moreover, in test [2] (17β-estradiol, 48 hours, tissue), the “VEGF protein in the tissue itself” value is given as “no effect”.
Regarding VEGF, the “connexin-43 expression in cervical explants” value in test [3] (non-pregnant cervical explants, FIG. 11B) is given as “up-regulation”. In test [4] (10 ng/ml gel intravaginally, protocol B (day 16 to day 20), significant only when applied later in pregnancy), the “slope of stress-strain curve” value was “statistically significant decrease”. The cervical extensibility result in test [4] (protocol A (day 12 to day 16)) and in test [4] (protocol B (day 16 to day 20)) was “significantly increased” each time. Besides, the “connexin-43 expression in myometrial explants” value in test [5] is “up-regulation”.
With platelet-activating factor [PAF], the “connexin-43 expression in cervix” value in test [3] (PAF at various concentrations, non-pregnant cervix, FIG. 12) is listed as “up-regulation”. Further, in test [2] (PAF at various concentrations, 24 hours), the “VEGF expression in non-pregnant cervix” value is “increases”.
On to `CC#C[C@]1(O)CC[C@H]2[C@@H]3CCC4=CC(=O)CCC4=C3[C@@H](c3ccc(N(C)C)cc3)C[C@@]21C` [RU486], for which the preterm delivery in test [6] is given as 80 % of animals.
For `CC(=O)[C@H]1CC[C@H]2[C@@H]3CCC4=CC(=O)CC[C@]4(C)[C@H]3CC[C@]12C` [progesterone], the “VEGF mRNA” value in test [1] (progesterone at 10^−4 M in the presence of 10^−7 M 17β-estradiol) and in test [1] (progesterone at 10^−4 M) was “down-regulated” in each case. Besides, the “VEGF protein expression in the culture medium” value in test [2] (explants primed with 17β-estradiol for 4 hours, then increasing concentration of progesterone, culture medium) is listed as “dose-dependent increase”. Also, the “VEGF protein expression in the tissue” value in test [2] (explants primed with 17β-estradiol for 4 hours, then increasing concentration of progesterone, tissue) is listed as “dose-dependent increase”. The “VEGF protein in the culture medium compared with Control” value in test [2] (progesterone at 10^−4 M, 48 hours, culture medium) was “down-regulated”. Also, the “VEGF protein in the tissue itself compared with Control” value in test [2] (progesterone at 10^−4 M, 48 hours, tissue) is “down-regulated”.
